This series has as its system polarized human airway epithelial cultures (HAEC).

Regarding `COc1cccc2[nH]c(C(=O)N[C@@H](CC(C)C)C(=O)N[C@@H](C[C@@H]3CCNC3=O)C(=O)CO)cc12` [PF-00835231], the “effect on transepithelial resistance (TEER) over time” value is “we did not observe this trend”.
